Experiments:
NDM-1 = NDM-1 (Klebsiella pneumoniae, UniProt C7C422); experiment: biochemical; assay type: biochemical; conditions: CCF2-FA fluorescence assay, 2 hours at 25° C.
Method in brief: (§1)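 Metallo-β-lactamase activity read by fluorescence against CCF2-FA (1.25 μM final) in 100 mM KH2PO4 pH 7 with 0.005% Tween-20 and 10 μM ZnSO4; enzyme final at 1 pM NDM-1, 2 pM IMP-1 or 30 pM VIM-1. Inhibitor at 20 to 0.00063 μM, 2 h at 25° C; IC50 by 4-parameter fit.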

VIM-2 = VIM-2 (Escherichia coli, UniProt Q5U7L7); experiment: biochemical; conditions: CCF2-FA fluorescence assay; read-out: VIM2 IC50
[1] = tested on: P. aeruginosa MB9798 (efflux+, IMP-1 plasmid); conditions: for MB9798 MITC95 P. aeruginosa uM Efflux WT: efflux + (MB9798) strain, imipenem at 2 μg/mL, in the presence of a class A, C, D serine β-lactamase inhibitor closely related to relebactam; for Efflux ratio: fold difference between efflux+ (MB9798) and efflux− (MB9799) strains
Method in brief: (§2)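 Isogenic P. aeruginosa PAO1 strains (efflux+ and multiple-efflux-pump-disrupted) carrying plasmid IMP-1, with inducible AmpC, tested by broth microdilution. Imipenem and/or ceftazidime fixed, usually at CLSI breakpoint, plus fixed class A/C β-lactamase inhibitor; titrated MBL inhibitor concentration restoring susceptibility recorded and compared between strains as efflux fold difference.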

[2] = tested on: Klebsiella pneumoniae expressing VIM-1 (IHMA599644); assay type: cell-based; conditions: with imipenem 1 μg/ml; 95% inhibition of bacterial growth
Method in brief: (§3)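 Clinical MBL-producing strains grown overnight at 35° C, diluted 1:100 into CAMHB, then exposed to test compound with imipenem at 1 μg/ml for 22–24 h at 35° C. Absorbance read-out; MITC95 is the lowest compound concentration giving 95% growth inhibition with imipenem.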

[3] = tested on: Serratia marcescens expressing IMP-1 (CL5741); assay type: cell-based; conditions: with imipenem 1 μg/ml; 95% inhibition of bacterial growth
Method in brief: as §3

[4] = tested on: Escherichia coli expressing NDM-1 (CLB30016); assay type: cell-based; conditions: with imipenem 1 μg/ml; 95% inhibition of bacterial growth
Method in brief: as §3

[5] = tested on: P. aeruginosa MB9799 (efflux-, IMP-1 plasmid); assay type: cell-based, Pseudomonas aeruginosa; conditions: efflux − (MB9799) strain; imipenem at 2 μg/mL; in the presence of a class A, C, D serine β-lactamase inhibitor closely related to relebactam
Method in brief: as §2

IMP-1 = IMP-1 (Serratia marcescens, UniProt P52699); experiment: biochemical; conditions: CCF2-FA fluorescence assay, 2 hours at 25° C.; read-out: IMP1 IC50
IMP-1, sequence (P52699 whole entry, looked up, species assumed): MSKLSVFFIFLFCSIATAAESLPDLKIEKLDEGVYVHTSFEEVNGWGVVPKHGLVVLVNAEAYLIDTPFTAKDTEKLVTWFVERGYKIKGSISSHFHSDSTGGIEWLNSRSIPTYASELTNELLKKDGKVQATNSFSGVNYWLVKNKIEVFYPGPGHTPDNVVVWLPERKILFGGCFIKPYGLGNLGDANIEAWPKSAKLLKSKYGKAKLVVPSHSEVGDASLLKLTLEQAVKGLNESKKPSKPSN
Method in brief: as §1

VIM-1 = VIM-1 (Pseudomonas aeruginosa (strain ATCC 15692 / DSM 22644 / CIP 104116 / JCM 14847 / LMG 12228 / 1C / PRS 101 / PAO1), UniProt A0A0F7KYQ8); experiment: biochemical; conditions: CCF2-FA fluorescence assay, 2 hours at 25° C.; read-out: VIM1 IC50
Method in brief: as §1

NDM-1, sequence (C7C422 whole entry, looked up, species assumed): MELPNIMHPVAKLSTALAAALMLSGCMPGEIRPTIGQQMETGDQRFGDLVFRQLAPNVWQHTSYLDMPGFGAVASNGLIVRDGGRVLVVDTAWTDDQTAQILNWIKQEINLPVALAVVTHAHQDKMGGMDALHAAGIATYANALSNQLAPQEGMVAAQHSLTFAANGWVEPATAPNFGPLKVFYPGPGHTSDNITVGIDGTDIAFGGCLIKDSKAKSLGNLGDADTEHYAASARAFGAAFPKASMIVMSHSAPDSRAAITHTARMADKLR

SMILES | IC50 (NDM-1) [nM] | IC50 (VIM-2) [nM] | MB9798 MITC95 P. aeruginosa uM Efflux WT [1] [µM] | Efflux ratio [1] | IHMA599644 K. pneumoniae MITC95 VIM [2] [µM] | CL5741 S. marcescens MITC95 IMP [3] [µM] | CLB30016 E. coli MITC95 NDM [4] [µM] | MB9799 MITC95 P. aeruginosa uM Efflux Mutant [5] [µM] | IC50 (IMP-1) [nM] | IC50 (VIM-1) [nM]
CC(=O)N[C@H]1CCN(c2ccc(S(=O)(=O)N[C@@H]3CCNC3)c(S(N)(=O)=O)c2-c2nnn[nH]2)C1 [Example 83, N-[(3S)-1-{4-[(3R)-pyrrolidin-3-ylsulfamoyl]-3-sulfamoyl-2-(1H-tetrazol-5-yl)phenyl}pyrrolidin-3-yl]acetamide] | 4.98 | 2.82 | 12.50 | 4.00 | 12.50 | 3.13 | 6.25 | 3.13 | 15.9 | 2.11
NC1(CO)CCN(c2ccc(S(=O)(=O)N[C@@H]3CCNC3)c(S(N)(=O)=O)c2-c2nnn[nH]2)C1 (stereo partly drawn) [Example 84, 4-[3-amino-3-(hydroxymethyl)pyrrolidin-1-yl]-N1-[(3R)-pyrrolidin-3-yl]-3-(1H-tetrazol-5-yl)benzene-1,2-disulfonamide] | 19.7 | 46.9 | 6.25 | 4.00 | 1.56 | 1.56 | 0.78 | 1.56 | 33 | 7.27
NCC1(O)CCN(c2ccc(S(=O)(=O)N[C@@H]3CCNC3)c(S(N)(=O)=O)c2-c2nnn[nH]2)CC1 [Example 85, 4-[4-(aminomethyl)-4-hydroxypiperidin-1-yl]-N1-[(3R)-pyrrolidin-3-yl]-3-(1H-tetrazol-5-yl)benzene-1,2-disulfonamide] | 3.15 | 23.7 | 1.56 | 2.00 | 1.56 | 1.56 | 0.78 | 0.78 | 9.94 | 2.13
N[C@@H]1CCCN(c2ccc(S(=O)(=O)N[C@@H]3CCNC3)c(S(N)(=O)=O)c2-c2nnn[nH]2)C1 [Example 86, 4-[(3R)-3-aminopiperidin-1-yl]-N1-[(3R)-pyrrolidin-3-yl]-3-(1H-tetrazol-5-yl)benzene-1,2-disulfonamide] | 1.37 | 14 | 12.50 | 8.00 | 1.56 | 1.56 | 0.39 | 1.56 | 58.8 | 3.83
NS(=O)(=O)c1c(S(=O)(=O)N[C@@H]2CCNC2)ccc(N2CCC(CCF)CC2)c1-c1nnn[nH]1 [Example 87, 4-[4-(2-fluoroethyl)piperidin-1-yl]-N1-[(3R)-pyrrolidin-3-yl]-3-(1H-tetrazol-5-yl)benzene-1,2-disulfonamide] | 0.16 | 0.49 | 12.50 | 8.00 | 3.13 | 3.13 | 1.56 | 1.56 | 0.24 | 0.12
NS(=O)(=O)c1c(S(=O)(=O)N[C@@H]2CCNC2)ccc(N2CCC(OCCO)CC2)c1-c1nnn[nH]1 [Example 88, 4-[4-(2-hydroxyethoxy)piperidin-1-yl]-N1-[(3R)-pyrrolidin-3-yl]-3-(1H-tetrazol-5-yl)benzene-1,2-disulfonamide] | 0.08 | 0.97 | 6.25 | 1.00 | 12.50 | 12.50 | 12.50 | 6.25 | 0.13 | 0.19
NS(=O)(=O)c1c(S(=O)(=O)N[C@@H]2CCNC2)ccc(N2CCC(CF)CC2)c1-c1nnn[nH]1 [Example 89, 4-[4-(fluoromethyl)piperidin-1-yl]-N1-[(3R)-pyrrolidin-3-yl]-3-(1H-tetrazol-5-yl)benzene-1,2-disulfonamide] | 0.21 | 0.66 | 3.13 | 2.00 | 12.50 | 3.13 | 1.56 | 1.56 | 0.61 | 0.21
